In brackets after ≈: the same amount, converted by molar mass.
Columns and labels:
[1] = Gravimetric vapour sorption (GVS) analysis, hygroscopicity; format: physicochemical; conditions: mass change between 40% and 80% relative humidity, first adsorption scan, 25° C.
Experimental: Gravimetric Vapour Sorption (GVS) Analysis:
Measurements were performed simultaneously for the COMPOUND in the crystalline form A, B, and C on a multi sample instrument SPS-100n (Projekt Messtechnik, Ulm, Germany) operated in stepping mode at 25° C.

[2] = Aqueous solubility; format: physicochemical; conditions: in water

hygroscopic classification (European Pharmacopeia Technical Guide) [1]	mass gain [1]	solubility [2] [µg/mL]	Structure (SMILES)
Slightly hygroscopic	0.8%		CCc1cc(-c2noc(-c3cc(OC)nc(C4CCCC4)c3)n2)cc(C)c1OC[C@@H](O)CO [Form C, (S)-3-{4-[5-(2-cyclopentyl-6-methoxy-pyridin-4-yl)-[1,2,4]oxadiazol-3-yl]-2-ethyl-6-methyl-phenoxy}-propane-1,2-diol]
Slightly hygroscopic	0.5%		CCc1cc(-c2noc(-c3cc(OC)nc(C4CCCC4)c3)n2)cc(C)c1OC[C@@H](O)CO [Form B, (S)-3-{4-[5-(2-cyclopentyl-6-methoxy-pyridin-4-yl)-[1,2,4]oxadiazol-3-yl]-2-ethyl-6-methyl-phenoxy}-propane-1,2-diol]
Non-hygroscopic	less than 0.2%		CCc1cc(-c2noc(-c3cc(OC)nc(C4CCCC4)c3)n2)cc(C)c1OC[C@@H](O)CO [Form A, (S)-3-{4-[5-(2-cyclopentyl-6-methoxy-pyridin-4-yl)-[1,2,4]oxadiazol-3-yl]-2-ethyl-6-methyl-phenoxy}-propane-1,2-diol]
		~0.06 (≈ 0.132 µM)	CCc1cc(-c2noc(-c3cc(OC)nc(C4CCCC4)c3)n2)cc(C)c1OC[C@@H](O)CO [COMPOUND, (S)-3-{4-[5-(2-cyclopentyl-6-methoxy-pyridin-4-yl)-[1,2,4]oxadiazol-3-yl]-2-ethyl-6-methyl-phenoxy}-propane-1,2-diol]
